Measurements published in US10377753B2, “Substituted 4-azaindoles and their use as GluN2B receptor modulators” (Janssen Pharmaceutica NV, priority 2015, dated 2019).

Molecular target: cloned human NR1/NR2B ion channels (Homo sapiens (Human), UniProt Q05586+Q13224)
Assay: HNR2BC: effects of test articles on cloned human NR1/NR2B ion channels expressed in mammalian cells (FLIPR calcium flux)
Type: cell-based
Settings: cloned human NR1/NR2B, Table 5
Experimental: HNR2BC: Effects of Test Articles on Cloned Human NR1/NR2B Ion Channels Expressed in Mammalian Cells
NMDA receptors are ion channels that are highly permeable to Ca^2+ ions, rendering it possible to monitor NMDA receptor function using cell-based calcium flux assay. In this assay, co-agonists glutamate and glycine are added to cells heterologously expressing human GluN1/GluN2B NMDA receptors to initiate cellular Ca^2+ influx. The time course of the changes in intracellular calcium is measured using a fluorescent dye and a FLIPR (Fluorometric Imaging Plate Reader) device.
Twenty four hours before measurements, the expression of the NMDA receptors in the stable cell line is induced with Tet-On inducible system in the presence of a non-selective NMDA receptor blocker. On the day of the experiment, cell culture media is carefully washed and the cells are loaded with Calcium 5 Dye Kit (Molecular Devices) in dye loading buffer containing 137 mM NaCl, 4 mM KCl, 2 mM CaCl2, 0.5 mM MgCl2, 10 mM HEPES and 5 mM D-glucose; pH 7.4. After 1 h incubation at the room temperature, the dye is washed away with the assay buffer (137 mM NaCl, 4 mM KCl, 2 mM CaCl2, 0.01 mM EDTA, 10 mM HEPES and 5 mM D-glucose; pH 7.4) In the FLIPR TETRA reader, various concentrations of the test compounds are added to the cells for 5 min while fluorescence is monitored to detect potential agonist activity. Next, co-agonists, glutamate and glycine are added for another 5 minutes. The concentration of glutamate corresponding to ˜EC80 is used to maximize the assay's signal window and ability to detect NMDA receptor antagonists and negative allosteric modulators. A saturating concentration (10 μM) of glycine is also present in the assay. […] The fluorescent signal in the presence of test compounds is quantified and normalized to the signal defined by the appropriate control wells.

Chain of cloned human NR1/NR2B ion channels (Q13224 27-1484, other chains not shown): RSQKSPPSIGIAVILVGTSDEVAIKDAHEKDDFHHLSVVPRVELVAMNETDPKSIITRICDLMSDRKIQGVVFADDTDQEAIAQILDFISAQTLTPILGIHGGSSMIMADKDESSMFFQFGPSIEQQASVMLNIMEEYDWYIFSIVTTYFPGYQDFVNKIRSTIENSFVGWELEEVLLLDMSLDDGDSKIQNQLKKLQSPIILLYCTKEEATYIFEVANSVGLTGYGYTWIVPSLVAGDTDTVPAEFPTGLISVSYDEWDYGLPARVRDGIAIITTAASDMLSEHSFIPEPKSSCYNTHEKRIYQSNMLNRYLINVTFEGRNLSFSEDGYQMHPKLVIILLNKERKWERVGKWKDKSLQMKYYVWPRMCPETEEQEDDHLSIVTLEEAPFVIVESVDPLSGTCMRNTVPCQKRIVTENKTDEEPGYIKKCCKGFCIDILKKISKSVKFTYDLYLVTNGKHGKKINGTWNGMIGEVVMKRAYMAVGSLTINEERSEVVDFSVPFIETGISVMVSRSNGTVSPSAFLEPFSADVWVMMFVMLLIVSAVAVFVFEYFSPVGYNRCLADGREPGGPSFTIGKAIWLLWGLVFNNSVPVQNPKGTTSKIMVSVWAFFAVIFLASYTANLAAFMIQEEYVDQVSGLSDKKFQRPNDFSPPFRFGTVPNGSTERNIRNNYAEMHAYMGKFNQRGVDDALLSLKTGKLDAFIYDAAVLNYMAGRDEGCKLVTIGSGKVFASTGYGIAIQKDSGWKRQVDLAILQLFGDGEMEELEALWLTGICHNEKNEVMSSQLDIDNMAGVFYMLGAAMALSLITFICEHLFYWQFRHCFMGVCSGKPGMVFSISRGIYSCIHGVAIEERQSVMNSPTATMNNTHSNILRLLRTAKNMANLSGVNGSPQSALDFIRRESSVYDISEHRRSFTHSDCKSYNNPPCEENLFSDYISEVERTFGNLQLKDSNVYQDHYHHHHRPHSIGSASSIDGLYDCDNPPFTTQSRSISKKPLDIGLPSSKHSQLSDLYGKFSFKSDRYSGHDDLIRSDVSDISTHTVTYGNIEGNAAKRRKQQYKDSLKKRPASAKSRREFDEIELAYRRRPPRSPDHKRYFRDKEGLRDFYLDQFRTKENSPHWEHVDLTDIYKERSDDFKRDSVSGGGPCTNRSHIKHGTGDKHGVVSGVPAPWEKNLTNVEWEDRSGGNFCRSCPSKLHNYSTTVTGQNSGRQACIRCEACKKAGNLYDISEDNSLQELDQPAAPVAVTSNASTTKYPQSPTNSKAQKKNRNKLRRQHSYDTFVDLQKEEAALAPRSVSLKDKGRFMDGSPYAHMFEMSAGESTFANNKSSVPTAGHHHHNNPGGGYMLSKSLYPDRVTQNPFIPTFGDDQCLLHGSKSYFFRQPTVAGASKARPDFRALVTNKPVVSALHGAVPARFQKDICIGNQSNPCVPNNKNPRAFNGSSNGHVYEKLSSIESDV

Structure (SMILES)	IC50 [nM]	pIC50
O=C(Cn1cc(Br)c2ncc(-c3ccc(F)cc3)cc21)N1CCOCC1 [Example 20, 2-[3-Bromo-6-(4-fluorophenyl)pyrrolo[3,2-b]pyridin-1-yl]-1-morpholino-ethanone]	50.1	
Cc1cccc(-c2cnc3c(Br)cn(CC(=O)NC4CC4)c3c2)c1 [Example 21, 2-[3-Bromo-6-(m-tolyl)pyrrolo[3,2-b]pyridin-1-yl]-N-cyclopropyl-acetamide]	39.8	
Cc1cccc(-c2cnc3c(Br)cn(CC(=O)N4CCC4)c3c2)c1 [Example 22, 1-(Azetidin-1-yl)-2-[3-bromo-6-(m-tolyl)pyrrolo[3,2-b]pyridin-1-yl]ethanone]	25.1	
Cc1cccc(-c2cnc3c(Br)cn(CC(=O)N4CCCC4)c3c2)c1 [Example 23, 2-[3-Bromo-6-(m-tolyl)pyrrolo[3,2-b]pyridin-1-yl]-1-pyrrolidin-1-yl-ethanone]	50.1	
Cc1cccc(-c2cnc3c(Br)cn(CC(=O)N4CCOCC4)c3c2)c1 [Example 24, 2-[3-Bromo-6-(m-tolyl)pyrrolo[3,2-b]pyridin-1-yl]-1-morpholino-ethanone]	100	
Cc1cc(-c2cnc3c(Cl)cn(CC(=O)N4CC(F)(F)C4)c3c2)ccc1F [Example 25, 2-[3-Chloro-6-(4-fluoro-3-methyl-phenyl)pyrrolo[3,2-b]pyridin-1-yl]-1-(3,3-difluoroazetidin-1-yl)ethanone]	79.4	
Cc1cc(-c2cnc3c(Cl)cn(CC(=O)N4CC(F)C4)c3c2)ccc1F [Example 26, 2-[3-Chloro-6-(4-fluoro-3-methyl-phenyl)pyrrolo[3,2-b]pyridin-1-yl]-1-(3-fluoroazetidin-1-yl)ethanone]	39.8	
Cc1cn(CC(=O)N2CCCC2)c2cc(-c3ccc(F)cc3)cnc12 [Example 27, 2-[6-(4-Fluorophenyl)-3-methyl-pyrrolo[3,2-b]pyridin-1-yl]-1-pyrrolidin-1-yl-ethanone]	50.1	
Cc1cn(CC(=O)N2CCOCC2)c2cc(-c3ccc(F)cc3)cnc12 [Example 28, 2-[6-(4-Fluorophenyl)-3-methyl-pyrrolo[3,2-b]pyridin-1-yl]-1-morpholino-ethanone]	200	
O=C(Cn1cc(Cl)c2ncc(-c3ccc(F)c(F)c3)cc21)N1CCC1 [Example 29, 1-(Azetidin-1-yl)-2-[3-chloro-6-(3,4-difluorophenyl)pyrrolo[3,2-b]pyridin-1-yl]ethanone]	20	
O=C(Cn1cc(Cl)c2ncc(-c3ccc(F)c(F)c3)cc21)N1CC(F)C1 [Example 30, 2-[3-Chloro-6-(3,4-difluorophenyl)pyrrolo[3,2-b]pyridin-1-yl]-1-(3-fluoroazetidin-1-yl)ethanone]	20	
Cc1cc2ncc(-c3ccc(F)cc3)cc2n1CC(=O)N1CCOCC1 [Example 31, 2-[6-(4-Fluorophenyl)-2-methyl-pyrrolo[3,2-b]pyridin-1-yl]-1-morpholino-ethanone]	3160	
Cc1cn(CC(=O)NC2CC2)c2cc(-c3ccc(F)cc3)cnc12 [Example 32, N-Cyclopropyl-2-[6-(4-fluorophenyl)-3-methyl-pyrrolo[3,2-b]pyridin-1-yl]acetamide]	398	
Cc1cn(CC(=O)N2CCC2)c2cc(-c3ccc(F)cc3)cnc12 [Example 33, 1-(Azetidin-1-yl)-2-[6-(4-fluorophenyl)-3-methyl-pyrrolo[3,2-b]pyridin-1-yl]ethanone]	63.1	
O=C(Cn1cc(Cl)c2ncc(-c3ccc(F)c(F)c3)cc21)N1CC(F)(F)C1 [Example 34, 2-[3-Chloro-6-(3,4-difluorophenyl)pyrrolo[3,2-b]pyridin-1-yl]-1-(3,3-difluoroazetidin-1-yl)ethanone]		7.8
O=C(Cn1cc(Cl)c2ncc(-c3ccc(F)c(C(F)(F)F)c3)cc21)N1CC(F)C1 [Example 35, 2-[3-Chloro-6-[4-fluoro-3-(trifluoromethyl)phenyl]pyrrolo[3,2-b]pyridin-1-yl]-1-(3-fluoroazetidin-1-yl)ethanone]	200	
O=C(Cn1cc(Cl)c2ncc(-c3cccc(C(F)(F)F)c3)cc21)N1CC(F)(F)C1 [Example 36, 2-[3-Chloro-6-[3-(trifluoromethyl)phenyl]pyrrolo[3,2-b]pyridin-1-yl]-1-(3,3-difluoroazetidin-1-yl)ethanone]	100	
Cc1cc2ncc(-c3ccc(F)cc3)cc2n1CC(=O)N1CCCC1 [Example 37, 2-[6-(4-Fluorophenyl)-2-methyl-pyrrolo[3,2-b]pyridin-1-yl]-1-pyrrolidin-1-yl-ethanone]	1000	
Cc1cc2ncc(-c3ccc(F)cc3)cc2n1CC(=O)NC1CC1 [Example 38, N-Cyclopropyl-2-[6-(4-fluorophenyl)-2-methyl-pyrrolo[3,2-b]pyridin-1-yl]acetamide]	5010	
O=C(Cn1cc(Cl)c2ncc(-c3cc(F)c(F)c(F)c3)cc21)N1CC(F)C1 [Example 39, 2-[3-Chloro-6-(3,4,5-trifluorophenyl)pyrrolo[3,2-b]pyridin-1-yl]-1-(3-fluoroazetidin-1-yl)ethanone]	31.6	
O=C(Cn1cc(Cl)c2ncc(-c3ccc(F)c(C(F)(F)F)c3)cc21)N1CC(F)(F)C1 [Example 40, 2-[3-Chloro-6-[4-fluoro-3-(trifluoromethyl)phenyl]pyrrolo[3,2-b]pyridin-1-yl]-1-(3,3-difluoroazetidin-1-yl)ethanone]	501	
Cc1cccc(-c2cnc3cc(C)n(CC(=O)N4CCC4)c3c2)c1 [Example 41, 1-(Azetidin-1-yl)-2-[2-methyl-6-(m-tolyl)pyrrolo[3,2-b]pyridin-1-yl]ethanone]	25.1	

Second part, the molecule after the results:

IC50 [nM]	pIC50	Structure (SMILES)
2510		Cc1cc2ncc(-c3ccccc3)cc2n1CC(=O)N1CCCC1 [Example 42, 2-(2-Methyl-6-phenyl-pyrrolo[3,2-b]pyridin-1-yl)-1-pyrrolidin-1-yl-ethanone]
200		Cc1cccc(-c2cnc3cc(C)n(CC(=O)N4CCCC4)c3c2)c1 [Example 44, 2-[2-Methyl-6-(m-tolyl)pyrrolo[3,2-b]pyridin-1-yl]-1-pyrrolidin-1-yl-ethanone]
501		Cc1cccc(-c2cnc3cc(C)n(CC(=O)N4CCOCC4)c3c2)c1 [Example 45, 2-[2-Methyl-6-(m-tolyl)pyrrolo[3,2-b]pyridin-1-yl]-1-morpholino-ethanone]
501		Cc1cc2ncc(-c3ccc(F)cc3)cc2n1CC(=O)N1CCC1 [Example 46, 1-(Azetidin-1-yl)-2-[6-(4-fluorophenyl)-2-methyl-pyrrolo[3,2-b]pyridin-1-yl]ethanone]
79.4		Cc1cc2ncc(-c3ccccc3)cc2n1CC(=O)N1CCC1 [Example 47, 1-(Azetidin-1-yl)-2-(2-methyl-6-phenyl-pyrrolo[3,2-b]pyridin-1-yl)ethanone]
631		O=C(Cn1cc(Cl)c2ncc(-c3cccc(C(F)(F)F)c3)cc21)N1CC(F)C1 [Example 48, 2-[3-Chloro-6-[3-(trifluoromethyl)phenyl]pyrrolo[3,2-b]pyridin-1-yl]-1-(3-fluoroazetidin-1-yl)ethanone]
200		O=C(Cn1cc(Cl)c2ncc(-c3cc(F)c(F)c(F)c3)cc21)N1CC(F)(F)C1 [Example 49, 2-[3-Chloro-6-(3,4,5-trifluorophenyl)pyrrolo[3,2-b]pyridin-1-yl]-1-(3,3-difluoroazetidin-1-yl)ethanone]
39.8		O=C(Cn1cc(Cl)c2ncc(-c3ccc(F)c(F)c3F)cc21)N1CC(F)(F)C1 [Example 50, 2-[3-Chloro-6-(2,3,4-trifluorophenyl)pyrrolo[3,2-b]pyridin-1-yl]-1-(3,3-difluoroazetidin-1-yl)ethanone]
63.1		Cc1cccc(-c2cnc3cc(C)n(CC(=O)NC4CC4)c3c2)c1 [Example 51, N-Cyclopropyl-2-[2-methyl-6-(m-tolyl)pyrrolo[3,2-b]pyridin-1-yl]acetamide]
1260		Cc1cc2ncc(-c3ccccc3)cc2n1CC(=O)N1CCOCC1 [Example 52, 2-(2-Methyl-6-phenyl-pyrrolo[3,2-b]pyridin-1-yl)-1-morpholino-ethanone]
5010		Cc1cccc(-c2cnc3c(Cl)cn(CC(=O)N4CC(F)(F)C4)c3c2)c1 [Example 53, 2-[3-Chloro-6-(m-tolyl)pyrrolo[3,2-b]pyridin-1-yl]-1-(3,3-difluoroazetidin-1-yl)ethanone]
63.1		Cc1cccc(-c2cnc3c(Cl)cn(CC(=O)N4CC(F)C4)c3c2)c1 [Example 54, 2-[3-Chloro-6-(m-tolyl)pyrrolo[3,2-b]pyridin-1-yl]-1-(3-fluoroazetidin-1-yl)ethanone]
31.6		O=C(Cn1cc(Cl)c2ncc(-c3ccccc3)cc21)N1CC(F)(F)C1 [Example 55, 2-(3-Chloro-6-phenyl-pyrrolo[3,2-b]pyridin-1-yl)-1-(3,3-difluoroazetidin-1-yl)ethanone]
50.1		O=C(Cn1cc(Cl)c2ncc(-c3ccccc3)cc21)N1CC(F)C1 [Example 56, 2-(3-Chloro-6-phenyl-pyrrolo[3,2-b]pyridin-1-yl)-1-(3-fluoroazetidin-1-yl)ethanone]
